Columns and labels:
[1] = tested on: pigmented guinea pigs; experiment: Gentamicin-induced ototoxicity in guinea pigs in vivo (ABR threshold shifts, OHC counts), chronic model; conditions: GM 120 mg base/kg SQ daily for 2 weeks
Protocol: Pigmented male guinea pigs initially weighing 200–250 g from Charles River were used in the in-vivo study. Experiments were begun 1 week after the guinea pigs arrived. To select safe doses of SAHA for protective studies, we conducted two separate sets of experiments to assess serum platelet concentrations. […] In the second study, the higher doses (HD) of SAHA (15 mg/kg and 25 mg/kg) were used. The DMSO concentration was 1.1 g/kg, equal to the DMSO concentration used for the 25 mg/kg concentration of SAHA. […] SAHA was dissolved in 100% DMSO for stock solutions of 25 mg/mL and diluted with saline immediately before IP injections. All compound solutions were filtered with syringe filters before injection. Body weights were measured before each injection. If a guinea pig lost ~5% of its body weight, an additional 3–4 mL of saline was administrated subcutaneously.
The procedures for surface preparations of guinea pig cochlear epithelia were followed as previously described (Sha and Schacht, [1999b]). After the last auditory brain stem response (ABR) measurement, guinea pigs from the second group of experiments were deeply anesthetized in a CO2 chamber and decapitated. Cochleae were immediately removed and perfused with 4% paraformaldehyde in PBS at pH 7.4 and fixed overnight at 4°C. Micro-dissected surface preparations of the organ of Corti were permeabilized for 30 min with 0.5% Triton X-100 in PBS at room temperature (22–24°C) and stained with rhodamine phalloidin (Invitrogen) at a 1:100 dilution for 60 min at room temperature (22–24°C). After rinsing in PBS, the specimens were mounted on a slide with Gel-Mount™ (BioMeda Corp.). OHC counts were conducted with microscopy as described above for mice.
ABRs were measured 3 days before and 3 weeks after drug treatments. Animals were anesthetized with IP injections of ketamine (100 mg/kg) and xylazine (10 mg/kg) for mice or ketamine (58.8 mg/kg), xylazine (2.4 mg/kg), and acepromazine (1.2 mg/kg) for guinea pigs. Body temperature was maintained near 37°C with a heating pad. ABRs were measured at 12 and 32 kHz for guinea pigs or 8, 16, and 32 kHz for mice in a sound-isolated and electrically shielded booth (Acoustic Systems, Austin, TX, USA). Sub-dermal electrodes were inserted at the vertex of the skull, under the left ear and under the right ear (ground). […] Thresholds (the lowest stimulus level with a reproducible response) were determined by reducing the intensity in 10-dB steps and then in 5-dB steps approaching the threshold until no organized response was detected. Thresholds were evaluated based on ABR wave I. Scores were given by an expert blinded to experimental conditions between the highest stimulus level without a response and the lowest stimulus level where an organized response was observed. […]

[2] = Guinea pig tolerability, serum platelet, BUN and creatinine levels; format: in vivo, guinea pigs; conditions: GM + DMSO, n=4; in mg/dL (unit assumed)
Protocol: Pigmented male guinea pigs initially weighing 200–250 g from Charles River were used in the in-vivo study. Experiments were begun 1 week after the guinea pigs arrived. To select safe doses of SAHA for protective studies, we conducted two separate sets of experiments to assess serum platelet concentrations. In the first set, pigmented guinea pigs received daily IP injections of SAHA at lower doses (LD; 2 mg/kg and 5 mg/kg) concurrent with SQ injections of 120 mg GM base/kg body weight daily for 2 weeks. In the second study, the higher doses (HD) of SAHA (15 mg/kg and 25 mg/kg) were used. The DMSO concentration was 1.1 g/kg, equal to the DMSO concentration used for the 25 mg/kg concentration of SAHA. […] We then tested the protective ability of SAHA at LD (2 mg/kg and 5 mg/kg) and at HD of SAHA (15 mg/kg and 25 mg/kg) against GM-induced hearing loss concurrent with daily SQ injections of GM (dissolved in saline) at 120 mg base/kg for 14 days. SAHA was dissolved in 100% DMSO for stock solutions of 25 mg/mL and diluted with saline immediately before IP injections. All compound solutions were filtered with syringe filters before injection. Body weights were measured before each injection. If a guinea pig lost ~5% of its body weight, an additional 3–4 mL of saline was administrated subcutaneously.
Blood was obtained by nail clipping after light anesthesia of the guinea pigs by metofane inhalation after the last drug injections. Blood cells were separated by centrifugation at 1000× g for 15 min, and sera were stored at −20°C. Blood urea nitrogen (BUN), creatinine and platelet concentrations were determined using a Kodak Ektachem700XR Clinical Chemistry Analyzer (Clinical Products Division, Eastman Kodak, Rochester, NY, USA) and analyzed by Dr. Donald Giacherio, Chemical Pathology Laboratory, University of Michigan.
While the CBA/J mouse is a well-established model for chronic KM-induced ototoxicity, we wished to ascertain whether the lack of protection by SAHA might be species-dependent. We therefore tested if SAHA treatment had protective effects against GM-induced hearing loss in guinea pigs. To find safe doses to be used in guinea pigs in vivo, we first assessed serum platelet concentrations. Guinea pigs tolerated injections of SAHA at all concentrations of 5–25 mg/kg body weight concurrent with SQ injections of 120 mg GM base/kg body weight daily for 2 weeks with normal appearing fur and steadily increasing body weight. Blood samples were collected after the last injection.

[3] = tested on: outer hair cells (OHCs) of p3 murine organ of Corti explants; experiment: Protection against gentamicin-induced OHC loss in murine organ of Corti explants; format: cell-based, CBA/J mice; conditions: for concentration at which protection from GM-induced OHC loss begins / concentration that completely prevents GM-induced OHC loss / ED50 (median effective protective dose): 4.5 μM GM; for ED50 (median effective protective dose): 72 h co-incubation, p3 murine explants
Excerpt: (§1) The culture procedures have been described in detail (Chen et al., [2009]). In brief, postnatal day 3 (p3) CBA/J pups were euthanized after antisepsis using 70% ethanol. Inner ears were extracted from surrounding tissue and immersed in cold Hank’s balanced salt solution. The lateral wall tissues (stria vascularis and spiral ligament) and the auditory nerve bundle were micro-dissected from the organ of Corti. The explants were placed onto a prepared culture dish containing a 15-μL polymerized drop of rat tail collagen in 1 mL of culture medium consisting of Basal Medium Eagle, 1% serum-free supplement (Invitrogen, Carlsbad, CA, USA), 1% bovine serum albumin, 5 mg/mL glucose, and 10 U/mL penicillin G. After 4 h of incubation (37°C, 5% CO2), an additional 1 mL of medium was added to submerge the explants.
(§2) The medium was then exchanged for new medium containing a final concentration of 4.5 μM GM with or without various concentrations of the HDAC inhibitors and incubated for 72 h. The stock solutions with 95 mM of SAHA/vorinostat (Cayman Chemical, Ann Arbor, MI, USA), 100 mM of belinostat (Selleckchem, Houson, TX, USA), and 100 mM of panobinostat (Cayman Chemical), were dissolved in 100% dimethyl sulfoxide (DMSO) and stored at −20°C. GM solution was made fresh from powder in culture medium at 0.2 mM and then diluted to the final concentration for each experiment.
(§3) Explants were fixed with 4% paraformaldehyde overnight at 4°C and permeabilized for 30 min with 3% Triton X-100 in phosphate-buffered saline (PBS) at room temperature (22–24°C). The specimens were then washed three times with PBS and incubated with rhodamine-phalloidin (Invitrogen) at a 1:100 dilution for 60 min at room temperature (22–24°C). After rinsing in PBS, the specimens were mounted on a slide with Gel-Mount™ (BioMeda Corp., Foster City, CA, USA). The phalloidin-stained stereociliary bundles and circumferential F-actin rings on the cuticular plate of OHCs allowed the determination of cells that were present or missing. A clear “V” shape of stereocilia indicates the presence of OHCs. If the “V” shape is not visualized, we accept this as a damaged hair cells. Cell populations were assessed on a Leitz Orthoplan upright microscope equipped for epifluorescence, using a 50× oil-immersion objective. […] Each successive 0.19-mm field was evaluated for the absence of OHCs beginning from the apex and moving down the organ of Corti to the base. The percentage of OHC loss was calculated.
After having established the safe concentration range for the HDAC inhibitors, we explored their efficacy as protective agents against GM-induced OHC loss. […] From the assessment of safe doses and the median effective (protective) doses (ED50) of the three HDAC inhibitors, we calculated the therapeutic index (TI = TD50/ED50) to be highest (safest) for belinostat and lowest for panobinostat (for detailed values see Table 2).

[4] = tested on: CBA/J mice; experiment: Kanamycin-induced hearing loss in CBA/J mice in vivo (ABR threshold shifts), chronic model; conditions: KM 700 mg base/kg SQ twice daily for 15 days
Protocol: Male CBA/J mice at the age of 5 weeks received subcutaneous (SQ) injections of KM at 700 mg base/kg (dissolved in saline) twice per day (AM and PM). SAHA for administration was dissolved in 100% DMSO for stock solutions of 50 mg/mL and diluted with saline immediately before intraperitoneal (IP) injection, for a final dose of 50 mg/kg, given twice per day for 15 days. The concentration of DMSO vehicle control was 1 mL/kg body weight. All solutions were filtered with a syringe filter before injection. Body weight was measured before each injection.
ABRs were measured 3 days before and 3 weeks after drug treatments. Animals were anesthetized with IP injections of ketamine (100 mg/kg) and xylazine (10 mg/kg) for mice or ketamine (58.8 mg/kg), xylazine (2.4 mg/kg), and acepromazine (1.2 mg/kg) for guinea pigs. Body temperature was maintained near 37°C with a heating pad. ABRs were measured at 12 and 32 kHz for guinea pigs or 8, 16, and 32 kHz for mice in a sound-isolated and electrically shielded booth (Acoustic Systems, Austin, TX, USA). Sub-dermal electrodes were inserted at the vertex of the skull, under the left ear and under the right ear (ground). Tucker Davis Technology System III hardware and SigGen/Biosig software were used to present the stimuli monaurally (15 ms duration tone bursts with 1 ms rise-fall time) through a Beyer earphone attached to a customized plastic speculum inserted into the ear canal. Up to 1024 responses were averaged for each stimulus level. Thresholds (the lowest stimulus level with a reproducible response) were determined by reducing the intensity in 10-dB steps and then in 5-dB steps approaching the threshold until no organized response was detected. Thresholds were evaluated based on ABR wave I. Scores were given by an expert blinded to experimental conditions between the highest stimulus level without a response and the lowest stimulus level where an organized response was observed. All ABR measurements were conducted by the same experimenter. […]

[5] = tested on: outer hair cells (OHCs) of p3 murine organ of Corti explants; experiment: Toxicity of HDAC inhibitors in murine cochlear explants (OHC loss by hair cell counts); format: cell-based, CBA/J mice; conditions: for loss of OHCs: 72 h; for concentration at which changes in orientation of stereociliary bundles of basal-turn OHCs begin / TD50 (median toxic dose, concentration leading to 50% OHC loss): 72 h incubation; for TD50 (median toxic dose, concentration leading to 50% OHC loss): p3 murine explants
Excerpt: as §1, §2, §3
In order to evaluate the protective potential of the three HDAC inhibitors on aminoglycoside-induced ototoxicity, we first determined their safety on auditory sensory hair cells using p3 murine organ of Corti explants. Explants were incubated for 2 days for recovery from the stress of dissection, followed by 72 h of incubation with or without inhibitors. Toxic effects were assessed by OHC loss. […] OHCs in the basal turn show changes in the orientation of the stereociliary bundles beginning with concentrations of 4 μM for SAHA, 3 μM for belinostat, and 20 nM for panobinostat.

[6] = tested on: guinea pigs; parameters: method as in Wang et al., 2015; conditions: locally applied to the middle ear; ref Wang et al., 2015; cited from earlier work
[7] = tested on: hair cells in organotypic cultures of the cochlea; parameters: method as in Chen et al., 2009; conditions: ref Chen et al., 2009; cited from earlier work

SMILES | concentration at which protection from GM-induced OHC loss begins ([3]; 72 h) [µM] | concentration that completely prevents GM-induced OHC loss ([3]; 72 h) [µM] | ED50 (median effective protective dose) [3] [nM] | concentration at which changes in orientation of stereociliary bundles of basal-turn OHCs begin [5] [nM] | TD50 (median toxic dose, concentration leading to 50% OHC loss) [5] [µM] | effect on hair cells under GM-induced damage [7] | further results
CNC(C)C1CCC(N)C(OC2C(N)CC(N)C(OC3OCC(C)(O)C(NC)C3O)C2O)O1 (stereo not drawn) [GM, gentamicin] |  |  |  |  |  |  | OHC loss in the basal turn [1]: significant OHC loss; BUN [2]: 16 ± 4.5; Cr [2]: 0.5 ± 0.22; overall loss of OHCs ([3]; GM 4.5 μM with vehicle (DMSO) alone, 72 h, base-to-apex gradient): 40%
NC[C@H]1O[C@H](O[C@H]2[C@H](O)[C@@H](O[C@H]3O[C@H](CO)[C@@H](O)[C@H](N)[C@H]3O)[C@H](N)C[C@@H]2N)[C@H](O)[C@@H](O)[C@@H]1O [KM, kanamycin] |  |  |  |  |  |  | auditory threshold shift (ABR), average ([4]; 16 kHz): 55 dB; auditory threshold shift (ABR), average ([4]; 32 kHz): 55 dB
O=C(/C=C/c1cccc(S(=O)(=O)Nc2ccccc2)c1)NO [belinostat] | 0.1 | 0.4 | 50 | 3000 | 3.5 |  | loss of OHCs ([5]; 5 μM): 100%
CCCC(=O)O [butyrate, sodium butyrate] |  |  |  |  |  | rescued hair cells | protection of guinea pigs in vivo [6]: protected
Cc1[nH]c2ccccc2c1CCNCc1ccc(/C=C/C(=O)NO)cc1 [panobinostat] | 0.005 | 0.015 | 9 | 20 | 0.035 |  | loss of OHCs ([5]; 50 nM): 100%
CC(/C=C/C(=O)NO)=C\[C@@H](C)C(=O)c1ccc(N(C)C)cc1 [trichostatin A] |  |  |  |  |  | rescued hair cells | 

Source: article PMC5660723, “Histone Deacetylase Inhibitors Are Protective in Acute but Not in Chronic Models of Ototoxicity” (Frontiers in Cellular Neuroscience, 2017)
